US11040962B2, “Pesticidally active pyrazole derivatives” (SYNGENTA PARTICIPATIONS AG, priority 2017, dated 2021)

What was measured:
Format in all cases: in vivo
[1] = test system: Thrips tabaci; assay: Thrips tabaci (onion thrips) sunflower leaf disc spray test; conditions: foliar, 144 h, application rate 200 ppm, population of mixed ages, 6 days after infestation
Procedure: Thrips tabaci (Onion Thrips):
(§1) Sunflower leaf discs were placed on agar in 24-well microtiter plates and sprayed with aqueous test solutions prepared from 10′000 ppm DMSO stock solutions. After drying the leaf discs were infested with a Thrips population of mixed ages. The samples were assessed for mortality 6 days after infestation.

[2] = test system: Tetranychus urticae; assay: Tetranychus urticae (two-spotted spider mite) bean leaf disc spray test; conditions: foliar, 192 h, application rate 200 ppm, 8 days after infestation, read-out: mortality on mixed population (mobile stages)
Procedure: Tetranychus urticae (Two-Spotted Spider Mite):
as §1, with “Bean” for “Sunflower”, “discs” for “discs were placed”, “were” for “and”, “mite” for “Thrips”, “on mixed population (mobile stages) 8” for “6”

[3] = test system: Spodoptera littoralis; assay: Spodoptera littoralis (Egyptian cotton leaf worm) cotton leaf disc spray test; conditions: foliar, 72 h, application rate 200 ppm, L1 larvae, 3 days after infestation, vs untreated, read-out: control (at least one of mortality, anti-feedant effect, growth inhibition)
Procedure: Spodoptera littoralis (Egyptian Cotton Leaf Worm)
Cotton leaf discs were placed on agar in 24-well microtiter plates and sprayed with aqueous test solutions prepared from 10′000 ppm DMSO stock solutions. After drying the leaf discs were infested with five L1 larvae. The samples were assessed for mortality, anti-feedant effect, and growth inhibition in comparison to untreated samples 3 days after infestation. Control of Spodoptera littoralis by a test sample is when at least one of mortality, anti-feedant effect, and growth inhibition is higher than the untreated sample.

[4] = test system: Euschistus heros; assay: Euschistus heros (neotropical brown stink bug) soybean leaf spray test; conditions: 120 h, application rate 200 ppm, N2 nymphs, 5 days after infestation, vs untreated, read-out: effect in at least one of the two categories (mortality or growth inhibition)
Procedure: Euschistus heros (Neotropical Brown Stink Bug)
Soybean leaves on agar in 24-well microtiter plates were sprayed with aqueous test solutions prepared from 10′000 ppm DMSO stock solutions. After drying the leaves were infested with N2 nymphs. The samples were assessed for mortality and growth inhibition in comparison to untreated samples 5 days after infestation. The following compounds gave an effect of at least 80% in at least one of the two categories (mortality or growth inhibition) at an application rate of 200 ppm: 1, 2, 3, 7, 8, 9, 12, 13, 14, 15, 17, 18, 21, 25, 26, 27, 28 and 29.

[5] = test system: Plutella xylostella; assay: Plutella xylostella (diamond back moth) artificial diet test; conditions: 120 h, application rate 200 ppm, L2 larvae, 5 days after infestation, vs untreated, read-out: effect in at least one of the two categories (mortality or growth inhibition)
Procedure: Plutella xylostella (Diamond Back Moth):
24-well microtiter plates with artificial diet were treated with aqueous test solutions prepared from 10′000 ppm DMSO stock solutions by pipetting. After drying, the plates were infested with L2 larvae (10 to 15 per well). The samples were assessed for mortality and growth inhibition in comparison to untreated samples 5 days after infestation. The following compounds gave an effect of at least 80% in at least one of the two categories (mortality or growth inhibition) at an application rate of 200 ppm: 1, 2, 3, 4, 7, 8, 9, 10, 11, 12, 13, 14, 15, 16, 17, 18, 19, 20, 21, 22, 23, 24, 26, 27, 28 and 29.

[6] = test system: Diabrotica balteata; assay: Diabrotica balteata (corn root worm) maize sprout spray test; conditions: 96 h, application rate 200 ppm, L2 larvae, 4 days after infestation, vs untreated, read-out: effect in at least one of the two categories (mortality or growth inhibition)
Procedure: Diabrotica balteata, (Corn Root Worm)
Maize sprouts, placed on an agar layer in 24-well microtiter plates were treated with aqueous test solutions prepared from 10′000 ppm DMSO stock solutions by spraying. After drying, the plates were infested with L2 larvae (6 to 10 per well). The samples were assessed for mortality and growth inhibition in comparison to untreated samples 4 days after infestation. The following compounds gave an effect of at least 80% in at least one of the two categories (mortality or growth inhibition) at an application rate of 200 ppm: 1, 2, 3, 4, 7, 8, 9, 11, 12, 13, 14, 15, 16, 17, 18, 19, 20, 21, 27, 28 and 29.

CN(C(=O)c1cc(-c2cc(-c3c(C(F)(F)F)c(C(F)(F)C(F)(F)F)nn3C)cs2)sc1C#N)C1CC1 [Compound 28, 2-cyano-N-cyclopropyl-N-methyl-5-[4-[2-methyl-5-(1,1,2,2,2-pentafluoroethyl)-4-(trifluoromethyl)pyrazol-3-yl]-2-thienyl]thiophene-3-carboxamide]
≥ 80%: mortality at 200 ppm [1] | mortality at 200 ppm [2] | percent control (mortality, anti-feedant effect or growth inhibition) at 200 ppm [3] | percent effect (mortality or growth inhibition) at 200 ppm [4] | percent effect (mortality or growth inhibition) at 200 ppm [5] | percent effect (mortality or growth inhibition) at 200 ppm [6]

CCN(C(=O)c1cc(-c2cc(-c3c(C(F)(F)F)c(C(F)(F)C(F)(F)F)nn3C)no2)sc1C#N)C1(C#N)CC1 [Compound 18, 2-cyano-N-(1-cyanocyclopropyl)-N-ethyl-5-[3-[2-methyl-5-(1,1,2,2,2-pentafluoroethyl)-4-(trifluoromethyl)pyrazol-3-yl]isoxazol-5-yl]thiophene-3-carboxamide]
≥ 80%: mortality at 200 ppm [1] | percent control (mortality, anti-feedant effect or growth inhibition) at 200 ppm [3] | percent effect (mortality or growth inhibition) at 200 ppm [4] | percent effect (mortality or growth inhibition) at 200 ppm [5] | percent effect (mortality or growth inhibition) at 200 ppm [6]

CCN(C(=O)c1cc(-c2cn(-c3c(C(F)(F)F)c(C(F)(F)C(F)(F)F)nn3C)nn2)sc1Cl)C1(C#N)CC1 [Compound 12, 2-chloro-N-(1-cyanocyclopropyl)-N-ethyl-5-[1-[2-methyl-5-(1,1,2,2,2-pentafluoroethyl)-4-(trifluoromethyl)pyrazol-3-yl]triazol-4-yl]thiophene-3-carboxamide]
≥ 80%: mortality at 200 ppm [1] | percent control (mortality, anti-feedant effect or growth inhibition) at 200 ppm [3] | percent effect (mortality or growth inhibition) at 200 ppm [4] | percent effect (mortality or growth inhibition) at 200 ppm [5] | percent effect (mortality or growth inhibition) at 200 ppm [6]

Cn1nc(C(F)(F)C(F)(F)F)c(C(F)(F)F)c1-c1cc(-c2cc(C(=O)NC3CC3)c(C#N)s2)cs1 [Compound 25, 2-cyano-N-cyclopropyl-5-[5-[2-methyl-5-(1,1,2,2,2-pentafluoroethyl)-4-(trifluoromethyl)pyrazol-3-yl]-3-thienyl]thiophene-3-carboxamide]
≥ 80%: mortality at 200 ppm [2] | percent effect (mortality or growth inhibition) at 200 ppm [4]

Cn1nc(C(F)(F)C(F)(F)F)c(C(F)(F)F)c1-c1cc(-c2cc(C(=O)NC3CC3)c(Cl)s2)on1 [Compound 19, 2-chloro-N-cyclopropyl-5-[3-[2-methyl-5-(1,1,2,2,2-pentafluoroethyl)-4-(trifluoromethyl)pyrazol-3-yl]isoxazol-5-yl]thiophene-3-carboxamide]
≥ 80%: percent control (mortality, anti-feedant effect or growth inhibition) at 200 ppm [3] | percent effect (mortality or growth inhibition) at 200 ppm [5] | percent effect (mortality or growth inhibition) at 200 ppm [6]

Cn1nc(C(F)(F)C(F)(F)F)c(C(F)(F)F)c1-c1cc(-c2cc(C(=O)NC3(C#N)CC3)c(C#N)s2)on1 [Compound 16, 2-cyano-N-(1-cyanocyclopropyl)-5-[3-[2-methyl-5-(1,1,2,2,2-pentafluoroethyl)-4-(trifluoromethyl)pyrazol-3-yl]isoxazol-5-yl]thiophene-3-carboxamide]
≥ 80%: mortality at 200 ppm [1] | mortality at 200 ppm [2] | percent control (mortality, anti-feedant effect or growth inhibition) at 200 ppm [3] | percent effect (mortality or growth inhibition) at 200 ppm [5] | percent effect (mortality or growth inhibition) at 200 ppm [6]

CCN(C(=O)c1cc(-c2cc(-c3c(C(F)(F)F)c(C(F)(F)C(F)(F)F)nn3C)no2)sc1Cl)C1(C#N)CC1 [Compound 24]
≥ 80%: mortality at 200 ppm [1] | percent control (mortality, anti-feedant effect or growth inhibition) at 200 ppm [3] | percent effect (mortality or growth inhibition) at 200 ppm [5]

CN(C(=O)c1cc(-c2cn(-c3c(C(F)(F)F)c(C(F)(F)C(F)(F)F)nn3C)nn2)sc1Cl)C1(C#N)CC1 [Compound 11, 2-chloro-N-(1-cyanocyclopropyl)-N-methyl-5-[1-[2-methyl-5-(1,1,2,2,2-pentafluoroethyl)-4-(trifluoromethyl)pyrazol-3-yl]triazol-4-yl]thiophene-3-carboxamide]
≥ 80%: mortality at 200 ppm [1] | percent control (mortality, anti-feedant effect or growth inhibition) at 200 ppm [3] | percent effect (mortality or growth inhibition) at 200 ppm [5] | percent effect (mortality or growth inhibition) at 200 ppm [6]

Cn1nc(C(F)(F)C(F)(F)F)c(C(F)(F)F)c1-n1cc(-c2cc(C(=O)NC3(C#N)CC3)c(Cl)s2)nn1 [Compound 10, 2-chloro-N-(1-cyanocyclopropyl)-5-[1-[2-methyl-5-(1,1,2,2,2-pentafluoroethyl)-4-(trifluoromethyl)pyrazol-3-yl]triazol-4-yl]thiophene-3-carboxamide]
≥ 80%: mortality at 200 ppm [1] | percent control (mortality, anti-feedant effect or growth inhibition) at 200 ppm [3] | percent effect (mortality or growth inhibition) at 200 ppm [5]

Cn1nc(C(F)(F)C(F)(F)F)c(C(F)(F)F)c1-n1cc(-c2cc(C(=O)NC3(C#N)CC3)c(C#N)s2)nn1 [Compound 4, 2-cyano-N-(1-cyanocyclopropyl)-5-[1-[2-methyl-5-(1,1,2,2,2-pentafluoroethyl)-4-(trifluoromethyl)pyrazol-3-yl]triazol-4-yl]thiophene-3-carboxamide]
≥ 80%: mortality at 200 ppm [1] | mortality at 200 ppm [2] | percent control (mortality, anti-feedant effect or growth inhibition) at 200 ppm [3] | percent effect (mortality or growth inhibition) at 200 ppm [5] | percent effect (mortality or growth inhibition) at 200 ppm [6]

CCN(C(=O)c1cc(-c2cc(-c3c(C(F)(F)F)c(C(F)(F)C(F)(F)F)nn3C)no2)sc1Cl)C1CC1 [Compound 21, 2-chloro-N-cyclopropyl-N-ethyl-5-[3-[2-methyl-5-(1,1,2,2,2-pentafluoroethyl)-4-(trifluoromethyl)pyrazol-3-yl]isoxazol-5-yl]thiophene-3-carboxamide]
≥ 80%: percent control (mortality, anti-feedant effect or growth inhibition) at 200 ppm [3] | percent effect (mortality or growth inhibition) at 200 ppm [4] | percent effect (mortality or growth inhibition) at 200 ppm [5] | percent effect (mortality or growth inhibition) at 200 ppm [6]

CN(C(=O)c1cc(-c2cc(-c3c(C(F)(F)F)c(C(F)(F)C(F)(F)F)nn3C)no2)sc1Cl)C1CC1 [Compound 20, 2-chloro-N-cyclopropyl-N-methyl-5-[3-[2-methyl-5-(1,1,2,2,2-pentafluoroethyl)-4-(trifluoromethyl)pyrazol-3-yl]isoxazol-5-yl]thiophene-3-carboxamide]
≥ 80%: mortality at 200 ppm [1] | percent control (mortality, anti-feedant effect or growth inhibition) at 200 ppm [3] | percent effect (mortality or growth inhibition) at 200 ppm [5] | percent effect (mortality or growth inhibition) at 200 ppm [6]

Cn1nc(C(F)(F)C(F)(F)F)c(C(F)(F)F)c1-c1cc(-c2cc(C(=O)NC3(C#N)CC3)c(Cl)s2)on1 [Compound 22, 2-chloro-N-(1-cyanocyclopropyl)-5-[3-[2-methyl-5-(1,1,2,2,2-pentafluoroethyl)-4-(trifluoromethyl)pyrazol-3-yl]isoxazol-5-yl]thiophene-3-carboxamide]
≥ 80%: percent effect (mortality or growth inhibition) at 200 ppm [5]

CN(C(=O)c1cc(-c2cc(-c3c(C(F)(F)F)c(C(F)(F)C(F)(F)F)nn3C)no2)sc1Cl)C1(C#N)CC1 [Compound 23, 2-chloro-N-(1-cyanocyclopropyl)-N-methyl-5-[3-[2-methyl-5-(1,1,2,2,2-pentafluoroethyl)-4-(trifluoromethyl)pyrazol-3-yl]isoxazol-5-yl]thiophene-3-carboxamide]
≥ 80%: mortality at 200 ppm [1] | percent control (mortality, anti-feedant effect or growth inhibition) at 200 ppm [3] | percent effect (mortality or growth inhibition) at 200 ppm [5]
